Experimental data: US9113629B2, “4-amino-6-(4-substituted-phenyl)-picolinates and 6-amino-2-(4-substituted-phenyl)-pyrimidine-4-carboxylates and their use as herbicides” (DOW AGROSCIENCES LLC, priority 2013, dated 2015)
Like-named read-outs stand apart in the source and are kept apart here.

Columns and labels:
[1] = system: Key Broadleaf Weed and Crop Species; test: Post-emergent Test II herbicidal activity (Table 5); format: in vivo; conditions: post-emergence, 336 h, 14 days after application; for pest or weed control at 70 g/ha: application rate 70 g ai/ha; for pest or weed control at 140 g/ha: application rate 140 g ai/ha
Method in brief: (§1)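 Spray rates: a highest rate plus ½×, ¼×, ⅛×, 1/16×, all delivered at 187 L/ha to plants at the first–second true leaf stage. Readout is a visual percent injury score at 14 d, where 100 means complete kill.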

[2] = system: Key Grass and Sedge Weeds as well as Grass Crops; test: Post-emergent Test II herbicidal activity (Table 6); format: in vivo; conditions: post-emergence, 336 h; for pest or weed control at 70 g/ha: 70 g ai/ha; for pest or weed control at 140 g/ha: 140 g ai/ha
Method in brief: as §1

[3] = ABUTH: velvetleaf (Abutilon theophrasti), read-out: Visual Growth Reduction (%) 14 Days After Application, ABUTH
[4] = AMARE: redroot pigweed (Amaranthus retroflexus), read-out: Visual Growth Reduction (%) 14 Days After Application, AMARE
[5] = BRSNN: oilseed-rape, canola (Brassica napus), read-out: Visual Growth Reduction (%) 14 Days After Application, BRSNN
[6] = CHEAL: lambsquarters (Chenopodium album), read-out: Visual Growth Reduction (%) 14 Days After Application, CHEAL
[7] = EPHHL: wild poinsettia (Euphorbia heterophylla), read-out: Visual Growth Reduction (%) 14 Days After Application, EPHHL
[8] = HELAN: sunflower (Helianthus annuus), read-out: Visual Growth Reduction (%) 14 Days After Application, HELAN
[9] = VIOTR: wild pansy (Viola tricolor), read-out: Visual Growth Reduction (%) 14 Days After Application, VIOTR
[10] = CYPES: yellow nutsedge (Cyperus esculentus), read-out: Visual Growth Reduction (%) 14 Days After Application, CYPES
[11] = DIGSA: crabgrass (Digitaria sanguinalis), read-out: Visual Growth Reduction (%) 14 Days After Application, DIGSA
[12] = ECHCG: barnyardgrass (Echinochloa crus-galli), read-out: Visual Growth Reduction (%) 14 Days After Application, ECHCG
[13] = ORYSA: rice (Oryza sativa), crop, read-out: Visual Growth Reduction (%) 14 Days After Application, ORYSA
[14] = SETFA: giant foxtail (Setaria faberi), read-out: Visual Growth Reduction (%) 14 Days After Application, SETFA
[15] = SORVU: grain sorghum (Sorghum vulgare), read-out: Visual Growth Reduction (%) 14 Days After Application, SORVU
[16] = TRZSS (wheat, Triticum aestivum), crop, read-out: Visual Growth Reduction (%) 14 Days After Application, TRZSS
[17] = ZEAMX: maize, corn (Zea mays), crop, read-out: Visual Growth Reduction (%) 14 Days After Application, ZEAMX

Structure (SMILES): Nc1c(F)c(-c2ccc(Br)c(F)c2F)nc(C(=O)O)c1Cl [Compound 147]
- pest or weed control at 70 g/ha [1, 3]: 95 to 100%
- pest or weed control at 140 g/ha [1, 3]: 0 to 29%
- pest or weed control at 70 g/ha [1, 4]: 95 to 100%
- pest or weed control at 140 g/ha [1, 4]: 95 to 100%
- pest or weed control at 70 g/ha [1, 5]: 95 to 100%
- pest or weed control at 140 g/ha [1, 5]: 95 to 100%
- pest or weed control at 70 g/ha [1, 6]: 95 to 100%
- pest or weed control at 140 g/ha [1, 6]: 95 to 100%
- pest or weed control at 70 g/ha [1, 7]: 95 to 100%
- pest or weed control at 140 g/ha [1, 7]: 95 to 100%
- pest or weed control at 70 g/ha [1, 8]: 95 to 100%
- pest or weed control at 140 g/ha [1, 8]: 95 to 100%
- pest or weed control at 70 g/ha [1, 9]: 95 to 100%
- pest or weed control at 140 g/ha [1, 9]: 95 to 100%
- pest or weed control at 70 g/ha [2, 10]: 95 to 100%
- pest or weed control at 140 g/ha [2, 10]: 95 to 100%
- pest or weed control at 70 g/ha [2, 11]: 85 to 94%
- pest or weed control at 140 g/ha [2, 11]: 95 to 100%
- pest or weed control at 70 g/ha [2, 12]: 95 to 100%
- pest or weed control at 140 g/ha [2, 12]: 95 to 100%
- pest or weed control at 70 g/ha [2, 13]: 60 to 74%
- pest or weed control at 140 g/ha [2, 13]: 75 to 84%
- pest or weed control at 70 g/ha [2, 14]: 0 to 29%
- pest or weed control at 140 g/ha [2, 14]: 95 to 100%
- pest or weed control at 70 g/ha [2, 15]: 95 to 100%
- pest or weed control at 140 g/ha [2, 15]: 95 to 100%
- pest or weed control at 70 g/ha [2, 16]: 60 to 74%
- pest or weed control at 140 g/ha [2, 16]: 60 to 74%
- pest or weed control at 70 g/ha [2, 17]: 95 to 100%
- pest or weed control at 140 g/ha [2, 17]: 95 to 100%
